# Source: paper PMC9495854, “Novel Phenothiazine/Donepezil-like Hybrids Endowed with Antioxidant Activity for a Multi-Target Approach to the Therapy of Alzheimer’s Disease” (Antioxidants, 2022)
# System: not listed separately
# Assay: DPPH radical scavenging assay
# Details: DPPH 100 µM in methanol, 30 min
# Experimental: A previously reported method (Blois) with some modifications (Mishra, Ojha, & Chaudhury, 2012) was used to carry out the DPPH assay in 96-well microtiter plates. Each tested compound was dissolved in methanol, after which a freshly prepared solution of DPPH in methanol (100 µM final concentration) was added. Following vigorous stirring, each mixture was left in the dark for 30 min at room temperature, after which absorbance values for each well were read at 520 nm using a spectrophotometric plate reader (VICTOR^3 V multilabel plate reader, PerkinElmer). Antioxidant activity was determined as RSA% (radical scavenging activity). The value was calculated using following equation: RSA% = 100 × [(Ao − Ai)/Ao], where Ao and Ai represent DPPH absorbance in absence or in presence of antioxidant, respectively. Antiradical curves for calculating the EC50 values were obtained by testing each compound at several concentrations. Values of all parameters are expressed as mean ± SEM of at least three independent measurements in triplicate.
row,Structure (SMILES),EC50 (μmol/μmol of DPPH ± SEM)
1,"O=C(NCC1CCN(Cc2ccccc2)CC1)c1ccc2c(c1)Nc1ccccc1S2 [Compound 11a, N-((1-Benzylpiperidin-4-yl)methyl)-10H-phenothiazine-2-carboxamide]",0.082 ± 0.007 μmol/μmol of DPPH
2,"O=C(NCC1CCN(Cc2ccccc2Cl)CC1)c1ccc2c(c1)Nc1ccccc1S2 [Compound 11b, N-((1-(2-Chlorobenzyl)piperidin-4-yl)methyl)-10H-phenothiazine-2-carboxamide]",0.139 ± 0.014 μmol/μmol of DPPH
3,"Cc1ccccc1CN1CCC(CNC(=O)c2ccc3c(c2)Nc2ccccc2S3)CC1 [Compound 11c, N-((1-(2-Methylbenzyl)piperidin-4-yl)methyl)-10H-phenothiazine-2-carboxamide]",0.117 ± 0.013 μmol/μmol of DPPH
4,"O=C(NCC1CCN(Cc2ccccc2F)CC1)c1ccc2c(c1)Nc1ccccc1S2 [Compound 11d, N-((1-(2-Fluorobenzyl)piperidin-4-yl)methyl)-10H-phenothiazine-2-carboxamide]",0.126 ± 0.014 μmol/μmol of DPPH
5,"COc1cccc(CN2CCC(CNC(=O)c3ccc4c(c3)Nc3ccccc3S4)CC2)c1 [Compound 11e, N-((1-(3-Methoxybenzyl)piperidin-4-yl)methyl)-10H-phenothiazine-2-carboxamide]",0.104 ± 0.011 μmol/μmol of DPPH
6,"O=C(NCCN1CCN(Cc2ccccc2)CC1)c1ccc2c(c1)Nc1ccccc1S2 [Compound 12a, N-(2-(4-Benzylpiperazin-1-yl)ethyl)-10H-phenothiazine-2-carboxamide]",0.182 ± 0.016 μmol/μmol of DPPH
7,"O=C(NCCN1CCN(Cc2ccccc2Cl)CC1)c1ccc2c(c1)Nc1ccccc1S2 [Compound 12b, N-(2-(4-(2-Chlorobenzyl)piperazin-1-yl)ethyl)-10H-phenothiazine-2-carboxamide]",0.122 ± 0.011 μmol/μmol of DPPH
8,"Cc1ccccc1CN1CCN(CCNC(=O)c2ccc3c(c2)Nc2ccccc2S3)CC1 [Compound 12c, N-(2-(4-(2-Methylbenzyl)piperazin-1-yl)ethyl)-10H-phenothiazine-2-carboxamide]",0.145 ± 0.010 μmol/μmol of DPPH
9,"O=C(NCCN1CCN(Cc2ccccc2F)CC1)c1ccc2c(c1)Nc1ccccc1S2 [Compound 12d, N-(2-(4-(2-Fluorobenzyl)piperazin-1-yl)ethyl)-10H-phenothiazine-2-carboxamide]",0.231 ± 0.026 μmol/μmol of DPPH

# System: SH-SY5Y cells
# Assay: MTT cell viability assay, SH-SY5Y
# Format: cell-based
# Details: 24 h exposure
# Experimental: Human hepatocellular liver carcinoma (HepG2) cell line and human neuroblastoma cell line, SH-SY5Y, were purchased from the American Type Culture Collection (ATCC, Manassas, VA, USA) and maintained at 37 °C in a humidified atmosphere (95% air and 5% carbon dioxide), and they were periodically screened for contamination. HepG2 cells were cultured in Eagle’s Minimum Essential Medium (MEM, Euroclone S.p.A., Pero, MI, Italy), supplemented with 10% Fetal Bovine Serum (FBS, Euroclone S.p.A., Pero, MI, Italy), 1% L-glutamine (Euroclone S.p.A., Pero, MI, Italy), 100 U/mL penicillin/streptomycin (Euroclone S.p.A., Pero, MI, Italy), 1% Non-Essential Amino Acids (NEAA, Euroclone S.p.A., Pero, MI, Italy). SH-SY5Y cells were grown in a 1:1 mixture of Dulbecco’s modified Eagle’s medium (DMEM)—high glucose (Euroclone S.p.A., Pero, MI, Italy) and Ham’s F12 Medium (Euroclone S.p.A., Pero, MI, Italy) supplemented with 10% FBS, 1% L-glutamine and 100 U/mL penicillin/streptomycin. For cell assays, cells were trypsinized using Trypsin-EDTA 1X in PBS (Euroclone S.p.A., Pero, MI, Italy).
# HepG2 and SH-SY5Y cell viability was assessed as previously reported by using a conventional 3-(4,5-dimethylthiazol-2-yl)-2,5-diphenyltetrazolium bromide (MTT) assay. In brief, viable cells were seeded and grown for 24 h into a sterile 96-well cell culture cluster (Corning, Sigma-Aldrich, St. Louis, MO, USA) in a complete medium and maintained at 37 °C in a humidified atmosphere with 5% CO2. The cells were then added with different concentrations of each compound for a period of 1 h or 24 h. At the end, the culture medium was replaced by a solution of 0.5 mg/mL MTT (Sigma-Aldrich, St. Louis, MO, USA) in PBS. After 2 h of incubation at 37 °C in 5% CO2, the supernatant was carefully removed from each well, and the formazan crystals were dissolved in DMSO. The absorbance values were measured at 570 nm using Tecan Infinite M1000 Pro (Tecan, Cernusco S.N., Italy) and DMSO medium as blank solution. The results were reported as % cell viability = [optical density (OD) of tested compound/medium OD of control cells] × 100. The results are expressed as mean ± SEM of at least three independent measurements in triplicate.
row,Structure (SMILES),MTT cytotoxicity IC50 ± SEM SHSY-5Y 24 h
1,"O=C(NCCN1CCN(Cc2ccccc2F)CC1)c1ccc2c(c1)Nc1ccccc1S2 [Compound 12d, N-(2-(4-(2-Fluorobenzyl)piperazin-1-yl)ethyl)-10H-phenothiazine-2-carboxamide]",no cytotoxic effects
